The target of the test is T1, dysferlin C2A domain (dysf C2A) (Homo sapiens, UniProt O75923).
T1 sequence (O75923 1-129): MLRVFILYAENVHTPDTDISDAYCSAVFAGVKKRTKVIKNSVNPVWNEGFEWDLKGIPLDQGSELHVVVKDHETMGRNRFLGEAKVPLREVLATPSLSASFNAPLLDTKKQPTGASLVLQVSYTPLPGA
Kind of test: […]-TROSY NMR titration, single-site fast-exchange fit. It is filed as binding.

Counter-ions that a name gives are not always drawn.

The Kd is the equilibrium constant for the complex coming apart. A higher Kd goes with a looser complex.

For `O=P(O)(O)O[C@@H]1[C@H](O)[C@H](O)[C@@H](OP(=O)(O)O)[C@H](OP(=O)(O)O)[C@H]1O` [IP3, D-myo-Inositol 1,4,5-tris-phosphate trisodium salt], the Kd lay in the range of 12 to 15 µM.
